Data on 31 compounds can be found in patent US20250171437A1 (Agios Pharmaceuticals,Inc., priority 2022, published 2025).

In the test the target is T1, human PAH with the R408W mutation (A375 R408W cells) (Homo sapiens, UniProt P00439, R408W).
T1 construct: expressed in transfected cells
T1 sequence (P00439 1-452 R408W): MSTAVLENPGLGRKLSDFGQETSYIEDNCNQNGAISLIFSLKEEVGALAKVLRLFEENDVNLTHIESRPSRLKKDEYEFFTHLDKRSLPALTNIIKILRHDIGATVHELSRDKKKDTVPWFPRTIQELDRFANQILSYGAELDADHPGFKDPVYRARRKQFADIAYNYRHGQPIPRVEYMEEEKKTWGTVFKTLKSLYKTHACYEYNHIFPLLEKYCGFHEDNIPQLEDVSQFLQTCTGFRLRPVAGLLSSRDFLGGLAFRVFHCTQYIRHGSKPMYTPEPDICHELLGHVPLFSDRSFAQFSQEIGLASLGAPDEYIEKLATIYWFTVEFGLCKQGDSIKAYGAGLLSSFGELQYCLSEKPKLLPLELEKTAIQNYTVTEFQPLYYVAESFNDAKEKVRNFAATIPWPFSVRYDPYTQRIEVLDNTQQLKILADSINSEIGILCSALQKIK
The test is described as follows: Cell Based Phenylalanine Flux Assay. The settings on record: 24 hrs with compound, then 20 μM sepiapterin and 800 μM 13C9,15N-Phenylalanine for 4 hours, 13C-Tyrosine by LC-MS, average where tested multiple times. A digest of the protocol:
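AC50 is derived from LC-MS of 13C-tyrosine in the media after a 4 h pulse of 800 μM 13C9,15N-phenylalanine plus 20 μM sepiapterin. The A375 R408W PAH cells had received duplicate 10-point, 2-fold compound dilutions (0.5% DMSO) for 24 h beforehand.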

[1] abbreviates: A375 cells expressing R408W PAH.

For `Nc1cn2ncc(C(=O)N3CCc4[nH]cnc4[C@@H]3c3nc4cc(F)ccc4o3)c2cc1Cl` [Example 178, (R)-(6-amino-5-chloropyrazolo[1,5-a]pyridin-3-yl)(4-(5-fluorobenzo[d]oxazol-2-yl)-6,7-dihydro-1H-imidazo[4,5-c]pyridin-5(4H)-yl)methanone], for the setting “A375 R408W cells”, the AC50 is at least 5000 nM.
Same read-out and setting: then `O=C(c1oc(C2(O)CCC2)nc1C(F)F)N1CCc2[nH]cnc2[C@@H]1c1nc2cc(F)ccc2o1` [Example 690, (R)-(4-(difluoromethyl)-2-(1-hydroxycyclobutyl)oxazol-5-yl)(4-(5-fluorobenzo[d]oxazol-2-yl)-6,7-dihydro-1H-imidazo[4,5-c]pyridin-5(4H)-yl)methanone], with 1000 to 5000 nM.
On to `O=C(C1CN(c2ccccn2)C1)N1CCc2[nH]cnc2C1c1nc2cc(F)ccc2o1` (stereo not shown), for which, under setting [1], the AC50 was at least 5000 nM.
In the case of `O=C(c1cnco1)N1CCc2[nH]cnc2[C@H]1c1nc2cccc(F)c2o1` [Example 281, (S)-(4-(7-fluorobenzo[d]oxazol-2-yl)-6,7-dihydro-1H-imidazo[4,5-c]pyridin-5(4H)-yl)(oxazol-5-yl)methanone], the AC50 (A375 R408W cells) was 500 to 1000 nM.
Still for that read-out and setting: the figure for `O=C(c1oc(-c2cnccn2)nc1C(F)F)N1CCc2[nH]cnc2[C@@H]1c1nc2cc(F)ccc2o1` [Example 528, (R)-(4-(difluoromethyl)-2-(pyrazin-2-yl)oxazol-5-yl)(4-(5-fluorobenzo[d]oxazol-2-yl)-6,7-dihydro-1H-imidazo[4,5-c]pyridin-5(4H)-yl)methanone] is 1000 to 5000 nM.
As to `Nc1cc(C(=O)N2CCc3[nH]cnc3C2c2nc3cc(F)ccc3o2)n(C(F)F)n1` (stereo not shown), under setting [1], the AC50 was in the range of 1000 to 5000 nM.
Consider `FC(F)(F)c1cnc(N2Cc3[nH]cnc3[C@H]2c2nc3ccccc3o2)nc1` [Example 949, (S)-2-(5-(5-(trifluoromethyl)pyrimidin-2-yl)-1,4,5,6-tetrahydropyrrolo[3,4-d]imidazol-4-yl)benzo[d]oxazole], for which, under “A375 R408W cells”, the half-maximal activity concentration (AC50) was 1000 to 5000 nM.
For `Cc1ccc2oc(C3c4nc[nH]c4CCN3C(=O)c3nnc(C(C)(C)O)o3)nc2c1` (stereo not shown), under setting [1], the half-maximal activity concentration (AC50) was at least 5000 nM.
`CN(C)C(C)(C)c1nc(C(F)F)c(C(=O)N2CCc3[nH]cnc3[C@H]2c2nc3cc(F)ccc3o2)o1` [Example 291, (S)-(4-(difluoromethyl)-2-(2-(dimethylamino)propan-2-yl)oxazol-5-yl)(4-(5-fluorobenzo[d]oxazol-2-yl)-6,7-dihydro-1H-imidazo[4,5-c]pyridin-5(4H)-yl)methanone]: the AC50 (A375 R408W cells) was at most 500 nM.
For the compound `Cc1ccc2nc(C3c4nc[nH]c4CCN3C(=O)c3cnn4cc(CCN(C)C)ccc34)oc2c1` (stereo not shown), the concentration at half-maximal activity (AC50) under setting [1] is at least 5000 nM.
Consider `CC(C)(O)c1nc(C(F)F)c(C(=O)N2CCc3[nH]cnc3[C@@H]2c2nc3ccc(F)c(F)c3o2)o1` [Example 298, (R)-(4-(6,7-difluorobenzo[d]oxazol-2-yl)-6,7-dihydro-1H-imidazo[4,5-c]pyridin-5(4H)-yl)(4-(difluoromethyl)-2-(2-hydroxypropan-2-yl)oxazol-5-yl)methanone], for which the AC50 (A375 R408W cells) lay within 1000 to 5000 nM.
Turning to `O=C(CCc1nccs1)N1CCc2[nH]cnc2C1c1nc2ccc(Br)cc2o1` (stereo not shown), the AC50 under setting [1] lay in the range of 1000 to 5000 nM.
On to `Cc1cccc2nc([C@@H]3c4nc[nH]c4CCN3C(=O)c3nnc(-c4cnn(C)c4)o3)oc12` [Example 565, (S)-(5-(1-methyl-1H-pyrazol-4-yl)-1,3,4-oxadiazol-2-yl)(4-(7-methylbenzo[d]oxazol-2-yl)-6,7-dihydro-1H-imidazo[4,5-c]pyridin-5(4H)-yl)methanone], for which the AC50 (A375 R408W cells) is 500 to 1000 nM.
Same read-out and setting: then `O=C(c1nnc(-c2ccccn2)o1)N1CCc2[nH]cnc2[C@@H]1c1nc2cc(F)ccc2o1` [Example 40, (R)-(4-(5-fluorobenzo[d]oxazol-2-yl)-6,7-dihydro-1H-imidazo[4,5-c]pyridin-5(4H)-yl)(5-(pyridin-2-yl)-1,3,4-oxadiazol-2-yl)methanone], with 1000 to 5000 nM; and `O=C(c1nnc(-c2ccc(F)c(F)c2)o1)N1CCc2[nH]cnc2[C@H]1c1nc2cc(F)ccc2o1` [Example 75, (S)-(5-(3,4-difluorophenyl)-1,3,4-oxadiazol-2-yl)(4-(5-fluorobenzo[d]oxazol-2-yl)-6,7-dihydro-1H-imidazo[4,5-c]pyridin-5(4H)-yl)methanone], with 500 to 1000 nM.
For `Cc1cccc2nc(C3c4nc[nH]c4CCN3C(=O)c3ccn(-c4ccccn4)n3)oc12` (stereo not shown), the AC50 under setting [1] is at least 5000 nM.
In the case of `O=C(c1oc(N2CCOCC2)nc1C(F)F)N1CCc2[nH]cnc2[C@@H]1c1nc2cc(F)ccc2o1` [Example 414, (R)-(4-(difluoromethyl)-2-morpholinooxazol-5-yl)(4-(5-fluorobenzo[d]oxazol-2-yl)-6,7-dihydro-1H-imidazo[4,5-c]pyridin-5(4H)-yl)methanone], where the note is “A375 R408W cells”, the AC50 was in the range of 1000 to 5000 nM.
On the same count and under the same terms, the figure for `O=C(CCc1ncco1)N1CCc2[nH]cnc2[C@H]1c1nc2c(F)cccc2o1` [Example 887, (S)-1-(4-(4-fluorobenzo[d]oxazol-2-yl)-6,7-dihydro-1H-imidazo[4,5-c]pyridin-5(4H)-yl)-3-(oxazol-2-yl)propan-1-one] is 500 to 1000 nM; for `O=C(c1nnc(-c2ncccc2F)o1)N1CCc2[nH]cnc2[C@H]1c1nc2c(F)ccc(F)c2o1` [Example 800, (S)-(4-(4,7-difluorobenzo[d]oxazol-2-yl)-6,7-dihydro-1H-imidazo[4,5-c]pyridin-5(4H)-yl)(5-(3-fluoropyridin-2-yl)-1,3,4-oxadiazol-2-yl)methanone] it is at most 500 nM; for `O=C(c1ocnc1C(F)F)N1CCc2[nH]cnc2[C@H]1c1nc2cccc(OC(F)(F)F)c2o1` [Example 532, (S)-(4-(difluoromethyl)oxazol-5-yl)(4-(7-(trifluoromethoxy)benzo[d]oxazol-2-yl)-6,7-dihydro-1H-imidazo[4,5-c]pyridin-5(4H)-yl)methanone] it is at most 500 nM.
Still for that read-out and setting: then `Cc1ccc2nc([C@H]3c4nc[nH]c4CCN3C(=O)c3oc(C(C)(C)O)nc3C)oc2c1` [Example 320, (R)-(2-(2-hydroxypropan-2-yl)-4-methyloxazol-5-yl)(4-(6-methylbenzo[d]oxazol-2-yl)-6,7-dihydro-1H-imidazo[4,5-c]pyridin-5(4H)-yl)methanone], with at least 5000 nM; and `Cc1cnn(C)c1-c1nnc(C(=O)N2CCc3[nH]cnc3[C@@H]2c2nc3cc(F)ccc3o2)o1` [Example 120, (R)-(5-(1,4-dimethyl-1H-pyrazol-5-yl)-1,3,4-oxadiazol-2-yl)(4-(5-fluorobenzo[d]oxazol-2-yl)-6,7-dihydro-1H-imidazo[4,5-c]pyridin-5(4H)-yl)methanone], with 1000 to 5000 nM.
Same read-out and setting: the figure for `COc1cccc2oc([C@H]3c4nc[nH]c4CCN3C(=O)c3nnc(-c4ccccn4)o3)nc12` [Example 623, (R)-(4-(4-methoxybenzo[d]oxazol-2-yl)-6,7-dihydro-1H-imidazo[4,5-c]pyridin-5(4H)-yl)(5-(pyridin-2-yl)-1,3,4-oxadiazol-2-yl)methanone] is 1000 to 5000 nM.
Turning to `CNCc1ccc2c(C(=O)N3CCc4[nH]cnc4C3c3nc4cc(F)ccc4o3)cnn2c1` (stereo not shown), the half-maximal activity concentration (AC50) under setting [1] was at least 5000 nM.
For the compound `Cc1nn(C)cc1-c1nnc(C(=O)N2CCc3[nH]cnc3[C@@H]2c2nc3cc(F)ccc3o2)o1` [Example 882, (R)-(5-(1,3-dimethyl-1H-pyrazol-4-yl)-1,3,4-oxadiazol-2-yl)(4-(5-fluorobenzo[d]oxazol-2-yl)-6,7-dihydro-1H-imidazo[4,5-c]pyridin-5(4H)-yl)methanone], the AC50 (A375 R408W cells) was 1000 to 5000 nM.
Turning to `Cc1cccc2nc([C@H]3c4nc[nH]c4CCN3C(=O)c3oc(C(C)(C)O)nc3C(F)F)oc12` [Example 391, (R)-(4-(difluoromethyl)-2-(2-hydroxypropan-2-yl)oxazol-5-yl)(4-(7-methylbenzo[d]oxazol-2-yl)-6,7-dihydro-1H-imidazo[4,5-c]pyridin-5(4H)-yl)methanone], the AC50 (A375 R408W cells) lay within 1000 to 5000 nM.
Turning to `Cn1nc(-c2ccccn2)nc1C(=O)N1CCc2[nH]cnc2C1c1nc2cccc(F)c2o1` (stereo not shown), under setting [1], the AC50 fell in the range of 1000 to 5000 nM.
Consider `Cc1cccc2nc([C@@H]3c4nc[nH]c4CCN3C(=O)c3nnc(-c4ccn(C(F)F)n4)o3)oc12` [Example 860, (S)-(5-(1-(difluoromethyl)-1H-pyrazol-3-yl)-1,3,4-oxadiazol-2-yl)(4-(7-methylbenzo[d]oxazol-2-yl)-6,7-dihydro-1H-imidazo[4,5-c]pyridin-5(4H)-yl)methanone], for which, where the note is “A375 R408W cells”, the AC50 is 500 to 1000 nM.
In the case of `O=C(CC1(O)CCC1)N1CCc2[nH]cnc2[C@H]1c1nc2cc(F)ccc2o1` [Example 55, (S)-1-(4-(5-fluorobenzo[d]oxazol-2-yl)-6,7-dihydro-1H-imidazo[4,5-c]pyridin-5(4H)-yl)-2-(1-hydroxycyclobutyl)ethanone], the AC50 (A375 R408W cells) fell in the range of 500 to 1000 nM.
For `O=C(c1ocnc1C(F)F)N1CCc2[nH]cnc2[C@@H]1c1nc2ccc(F)cc2o1` [Example 164, (R)-(4-(difluoromethyl)oxazol-5-yl)(4-(6-fluorobenzo[d]oxazol-2-yl)-6,7-dihydro-1H-imidazo[4,5-c]pyridin-5(4H)-yl)methanone], the AC50 (A375 R408W cells) is 1000 to 5000 nM.
With `O=C(c1cnco1)N1CCc2[nH]cnc2C1c1nc2ccc(Br)cc2o1` (stereo not shown), the AC50 under setting [1] is at least 5000 nM.
